Assay results as given in ChEMBL document CHEMBL5661943, “ASAP - In vitro antiviral effect” (2024).

How the values were obtained:
dengue virus type 2 [1] = assay: Functional assay to measure dose dependent changes in antiviral-drug inhibitory efficacy against Dengue virus type 2 New Guinea C in Vero E6 miRFP670 cells (cotreated with P-gp inhibitor, CP100356). Cells are treated with antiviral candidates that are serially diluted, following infection, cells are fixed. EC50 is reported via analysis of fluorescence intensity using high-content imager. The …; type: organism-based, Chlorocebus sabaeus, Vero C1008; settings: Baseline response 0 %, Maximum response 100 %, P-gp concentration 500 nM, P-gp inhibitor CP100356
Zika virus [2] = assay: EC50 is reported via analysis of immunofluorescence staining. The assay has been performed by Icahn School of Medicine at Mount Sinai.; type: functional, organism-based, Chlorocebus sabaeus, VeroE6/TMPRSS2; settings: Baseline response 0 %, P-gp concentration 2 uM, P-gp inhibitor Elacidar
dengue virus type 2 [3] = assay: Functional immunofluorescence assay to measure dose dependent changes in antiviral-drug inhibitory efficacy against Dengue virus type 2 Thailand/16681/84 in Vero E6/TMPRSS2 cells (cotreated with P-gp inhibitor, Elacridar). Cells are treated with antiviral candidates that are serially diluted, following infection, cells are fixed. EC50 is reported via analysis of immunofluorescence staining. The assay has been performed by Icahn School of Medicine at Mount Sinai.; type: organism-based, Chlorocebus sabaeus, VeroE6/TMPRSS2; settings: Baseline response 0 %, Maximum response 100 %, P-gp concentration 2 uM, P-gp inhibitor Elacidar
Zika virus [4] = assay: (§1) Functional CPE-based assay to measure dose dependent changes in antiviral-drug inhibitory efficacy against Zika virus MR766 in Vero E6 miRFP670 cells. Cells are treated with antiviral candidates that are serially diluted. EC50 is reported via analysis of MTS assay as a readout of CPE. The assay has been performed by KU Leuven.; type: organism-based, Chlorocebus sabaeus, Vero C1008; settings: for EC90: Baseline response 0 %, Maximum response 100 %
Zika virus [5] = assay: as §1, with “cells (cotreated with P-gp inhibitor, CP100356).” for “cells.”; type: organism-based, Chlorocebus sabaeus, Vero C1008; settings: Baseline response 0 %, Maximum response 100 %, P-gp concentration 500 nM, P-gp inhibitor CP100356

C#C[C@@]1(O)[C@H](O)[C@@H](CO)O[C@H]1n1ccc2c(N)ncnc21
EC90 (dengue virus type 2 [1]; EC90 CI (lower) 0.063 uM, EC90 CI (upper) 0.198 uM, Hill slope -1.33, Maximum measured 59.85 %, Minimum measured 0.021 %, R squared 0.933): 3.05 µM | EC90 (dengue virus type 2 [1]; EC90 CI (lower) 0.096 uM, EC90 CI (upper) 0.332 uM, Hill slope -1.394, Maximum measured 69.235 %, Minimum measured 0.073 %, R squared 0.818): 4.17 µM | EC90 (dengue virus type 2 [1]; EC90 CI (lower) 0.135 uM, EC90 CI (upper) 0.222 uM, Hill slope -1.408, Maximum measured 67.754 %, Minimum measured 0.12 %, R squared 0.962): 3.93 µM | EC90 (dengue virus type 2 [1]; EC90 CI (lower) 0.182 uM, EC90 CI (upper) 0.848 uM, Hill slope -1.407, Maximum measured 79.293 %, Minimum measured 0.097 %, R squared 0.879): 8.93 µM | EC90 (dengue virus type 2 [1]; EC90 CI (lower) 0.301 uM, EC90 CI (upper) 0.481 uM, Hill slope -1.99, Maximum measured 82.418 %, Minimum measured 0.182 %, R squared 0.957): 3.46 µM | EC90 (dengue virus type 2 [1]; EC90 CI (lower) 0.335 uM, EC90 CI (upper) 2.73 uM, Hill slope -2.159, Maximum measured 105.079 %, Minimum measured 6.932 %, R squared 0.477): 7.32 µM | EC90 (dengue virus type 2 [1]; EC90 CI (lower) 0.344 uM, EC90 CI (upper) 0.572 uM, Hill slope -2.092, Maximum measured 82.86 %, Minimum measured 0.014 %, R squared 0.949): 3.62 µM | EC90 (dengue virus type 2 [1]; EC90 CI (lower) 0.345 uM, EC90 CI (upper) 0.574 uM, Hill slope -1.668, Maximum measured 91.855 %, Minimum measured 0.191 %, R squared 0.984): 6.21 µM | EC90 (dengue virus type 2 [1]; EC90 CI (lower) 0.345 uM, EC90 CI (upper) 1.174 uM, Hill slope -1.957, Maximum measured 94.468 %, Minimum measured 0.047 %, R squared 0.91): 6.02 µM | EC90 (dengue virus type 2 [1]; EC90 CI (lower) 0.37 uM, EC90 CI (upper) 0.571 uM, Hill slope -1.792, Maximum measured 85.803 %, Minimum measured 0.04 %, R squared 0.97): 5.34 µM | EC90 (dengue virus type 2 [1]; EC90 CI (lower) 0.614 uM, EC90 CI (upper) 2.492 uM, Hill slope -4.433, Maximum measured 159.506 %, Minimum measured 0.037 %, R squared 0.838): 3.33 µM | EC90 (dengue virus type 2 [1]; EC90 CI (lower) 0.95 uM, EC90 CI (upper) 1.728 uM, Hill slope -2.215, Maximum measured 94.435 %, Minimum measured 0.459 %, R squared 0.976): 9.32 µM | EC90 (dengue virus type 2 [1]; EC90 CI (lower) 1.094 uM, EC90 CI (upper) 1.586 uM, Hill slope -2.299, Maximum measured 103.071 %, Minimum measured 0.093 %, R squared 0.991): 8.91 µM | EC90 (dengue virus type 2 [1]; EC90 CI (lower) 1.321 uM, EC90 CI (upper) 1.732 uM, Hill slope -3.141, Maximum measured 106.546 %, Minimum measured 0.058 %, R squared 0.995): 6.13 µM | EC90 (dengue virus type 2 [1]; EC90 CI (lower) 1.689 uM, EC90 CI (upper) 2.244 uM, Hill slope -3.785, Maximum measured 107.412 %, Minimum measured 0.007 %, R squared 0.985): 6.21 µM | EC90 (dengue virus type 2 [1]; EC90 CI (lower) […], EC90 CI (upper) 1.65 uM, Hill slope -1.956, Maximum measured 86.89 %, Minimum measured 0.152 %, R squared 0.926): 9.09 µM | EC90 (Zika virus [2]; EC90 CI (lower) 0.001 uM, EC90 CI (upper) 0.006 uM, Hill slope -0.989, Maximum measured 96.238 %, Maximum response 100 %, Minimum measured 0.519 %, R squared 0.897): 224 nM | EC90 (Zika virus [2]; EC90 CI (lower) 0.002 uM, EC90 CI (upper) 0.011 uM, Hill slope -0.683, Maximum measured 98.748 %, Maximum response 100 %, Minimum measured 0.794 %, R squared 0.927): 2880 nM | EC90 (Zika virus [2]; EC90 CI (lower) 0.002 uM, EC90 CI (upper) 0.016 uM, Hill slope -0.839, Maximum measured 81.893 %, Maximum response 100 %, Minimum measured 1.248 %, R squared 0.884): 1180 nM | EC90 (Zika virus [2]; EC90 CI (lower) 0.007 uM, EC90 CI (upper) 0.18 uM, Hill slope -1.662, Maximum measured 169.951 %, Maximum response 100 %, Minimum measured 5.93 %, R squared 0.731): 510 nM | EC90 (Zika virus [2]; EC90 CI (lower) 0.03 uM, EC90 CI (upper) 0.119 uM, Hill slope -3.091, Maximum measured 117.52 %, Maximum response 100 %, Minimum measured 1.1 %, R squared 0.948): 247 nM | EC90 (Zika virus [2]; EC90 CI (lower) 0.051 uM, EC90 CI (upper) 0.519 uM, Hill slope -4.939, Maximum measured 48.685 %, Maximum response 50 %, Minimum measured […], R squared 0.852): 395 nM | EC90 (Zika virus [2]; EC90 CI (lower) 0.102 uM, EC90 CI (upper) 0.325 uM, Hill slope -1.64, Maximum measured 123.086 %, Maximum response 100 %, Minimum measured 10.677 %, R squared 0.94): 2650 nM | EC90 (Zika virus [2]; Hill slope -0.492, Maximum measured 74.448 %, Maximum response 100 %, Minimum measured 1.207 %, R squared 0.744): > 10000 nM | EC90 (dengue virus type 2 [3]; EC90 CI (lower) 0.185 uM, EC90 CI (upper) 0.987 uM, Hill slope -1.843, Maximum measured 114.823 %, Minimum measured 1.4 %, R squared 0.854): 4.64 µM | EC90 (dengue virus type 2 [3]; EC90 CI (lower) […] uM, EC90 CI (upper) 0.029 uM, Hill slope -0.795, Maximum measured 131.547 %, Minimum measured 0.898 %, R squared 0.782): 1.45 µM | EC90 (dengue virus type 2 [3]; EC90 CI (lower) […] uM, EC90 CI (upper) 0.107 uM, Hill slope -1.582, Maximum measured 108.655 %, Minimum measured 1.401 %, R squared 0.84): 0.595 µM | EC90 (dengue virus type 2 [3]; EC90 CI (lower) […] uM, EC90 CI (upper) 0.213 uM, Hill slope -0.879, Maximum measured 109.405 %, Minimum measured 0.502 %, R squared 0.793): 8.04 µM | EC90 (Zika virus [4]; EC90 CI (lower) 0.609 uM, EC90 CI (upper) 2.047 uM, Hill slope 2.369, Maximum measured 114.788 %, Minimum measured 45.711 %, R squared 0.779): 1120 nM | EC90 (Zika virus [4]; EC90 CI (lower) 0.671 uM, EC90 CI (upper) 2.798 uM, Hill slope 1.934, Maximum measured 102.059 %, Minimum measured 46.421 %, R squared 0.63): 1370 nM | EC90 (Zika virus [4]; EC90 CI (lower) 0.837 uM, EC90 CI (upper) 2.594 uM, Hill slope 2.016, Maximum measured 108.843 %, Minimum measured 40.384 %, R squared 0.792): 1470 nM | EC90 (Zika virus [4]; EC90 CI (lower) 0.846 uM, EC90 CI (upper) 2.023 uM, Hill slope 2.239, Maximum measured 110.829 %, Minimum measured 40.755 %, R squared 0.884): 1310 nM | EC90 (Zika virus [4]; EC90 CI (lower) 0.889 uM, EC90 CI (upper) 2.697 uM, Hill slope 2.299, Maximum measured 106.469 %, Minimum measured 29.185 %, R squared 0.791): 1550 nM | EC90 (Zika virus [4]; EC90 CI (lower) 1.189 uM, EC90 CI (upper) 2.428 uM, Hill slope 2.067, Maximum measured 109.57 %, Minimum measured 34.796 %, R squared 0.858): 1700 nM | EC90 (Zika virus [4]; EC90 CI (lower) 1.447 uM, EC90 CI (upper) 5.92 uM, Hill slope 1.376, Maximum measured 98.736 %, Minimum measured 36.6 %, R squared 0.773): 2930 nM | EC90 (Zika virus [4]; EC90 CI (lower) 2.603 uM, EC90 CI (upper) 13.676 uM, Hill slope 1.372, Maximum measured 98.49 %, Minimum measured 18.919 %, R squared 0.79): 5970 nM | EC50 (Zika virus [4]; vero c1008): 587 nM [middle of 8 runs] | EC90 (Zika virus [5]; EC90 CI (lower) 0.21 uM, EC90 CI (upper) 1.971 uM, Hill slope 4.843, Maximum measured 127.846 %, Minimum measured 44.624 %, R squared 0.529): 644 nM | EC90 (Zika virus [5]; EC90 CI (lower) 0.347 uM, EC90 CI (upper) 1.935 uM, Hill slope 4.005, Maximum measured 138.155 %, Minimum measured 32.327 %, R squared 0.565): 819 nM | EC90 (Zika virus [5]; EC90 CI (lower) 0.485 uM, EC90 CI (upper) 1.678 uM, Hill slope 2.708, Maximum measured 115.594 %, Minimum measured 50.299 %, R squared 0.731): 902 nM | EC90 (Zika virus [5]; EC90 CI (lower) 0.573 uM, EC90 CI (upper) 1.709 uM, Hill slope 2.773, Maximum measured 114.82 %, Minimum measured 43.135 %, R squared 0.56): 990 nM | EC90 (Zika virus [5]; EC90 CI (lower) 0.644 uM, EC90 CI (upper) 1.624 uM, Hill slope 2.782, Maximum measured 120.433 %, Minimum measured 40.681 %, R squared 0.677): 1020 nM | EC90 (Zika virus [5]; EC90 CI (lower) 0.736 uM, EC90 CI (upper) 2.012 uM, Hill slope 2.837, Maximum measured 119.107 %, Minimum measured 28.833 %, R squared 0.835): 1220 nM | EC90 (Zika virus [5]; EC90 CI (lower) 0.778 uM, EC90 CI (upper) 1.421 uM, Hill slope 2.877, Maximum measured 117.074 %, Minimum measured 36.973 %, R squared 0.767): 1050 nM | EC90 (Zika virus [5]; EC90 CI (lower) 1.744 uM, EC90 CI (upper) 2.505 uM, Hill slope 3.857, Maximum measured 108.608 %, Minimum measured 1.409 %, R squared 0.98): 2090 nM | EC90 (Zika virus [5]; Hill slope -0.24, Maximum measured 59.299 %, Minimum measured 14.65 %, R squared 0.03): < 391 nM
